| Structure (SMILES) | melting point |
| --- | --- |
| NS(=O)(=O)c1ccc(-c2cn(-c3nc(-c4cccc(Cl)c4)cc(C(F)(F)F)n3)cn2)s1 | 280 °C |
| CCCCCCCCCCCCCCCCCCOc1cc(OCCOc2ccc3ccccc3c2)cc(C(=O)OCc2ccccc2)c1 | 62 to 65 °C |
| c1ccc(-c2ccc(C34CCCN(CC3)C4)nn2)cc1 (stereo unspecified) | 133 to 134 °C |
| Cc1ccccc1-c1cc(N2CCOCC2)ncc1C(N)=O | 144 to 145 °C |
| COc1ccc(C2=NN(C3CCCCCCC3)C(=O)[C@H]3CC=CC[C@@H]23)cc1OC (relative stereo) | 75 to 77 °C |
| O=c1[nH]c2ccccc2cc1CN1CC=C(/C=C/c2ccccc2)CC1 | 258 to 260 °C |
| Cn1cc(C(=O)NC2CCCNC(=O)C2)nn1 (stereo unspecified) | 259 to 260 °C |
| CC(=O)N1N=C(c2ccc([N+](=O)[O-])c(C)c2)c2cc3c(cc2C=C1C)OCO3 | 115 to 116 °C |
| CN1Cc2c(C#CI)ncn2-c2cccc(Cl)c2C1=O | 215 to 216 °C |
| CN(C)c1cncc(C#N)c1 | 104 °C |
| O=[N+]([O-])c1cc(C(F)(F)F)ccc1NC1CCCCC1 | 80.1 °C |
| O=C(Nc1ccc(CN2CCOCC2)cc1)C1=Cc2cc(-c3ccccc3)ccc2CC1 | 186 to 187 °C |
| CC(=O)N1C2=NC(C)(C)N(C)C(=O)N2c2ccccc21 | 159 to 162 °C |
| CC(C)n1nc(-c2ncc(N)nc2-c2ccccc2)ccc1=O | 204 to 206 °C |
| COC(=O)CCC(NC(=O)CCCC#Cc1cnc2nc(NC(=O)C(C)(C)C)nc(O)c2c1)C(=O)OC (stereo unspecified) | 159 to 160 °C |
| NS(=O)(=O)c1ccc(C2=C(c3ccc(F)cc3)CC3(CC3)C2)cc1 | 131 to 133 °C |
| CCSc1nc2nsc(N)c2s1 | 131 to 134 °C |
| O=Cc1c[nH]c2cccc(O)c12 | 196 to 200 °C |
| CN(c1ccccc1)c1nc(N2CCOCC2)nc(-n2ccnc2)n1 | 119 to 120 °C |
| Cc1nc2ccnn2c(=O)[nH]1 | 268 °C |

| Structure (SMILES) | melting point |
| --- | --- |
| Cc1cccc(C)c1NC(C)(C)C(=O)O | 148 °C |
| CCOC(=O)Nc1cscc1C(=O)OC | 52 °C |
| COC(=O)C(=O)c1cn2c3c(cccc13)CCC2 | 105 to 108 °C |
| COc1cccc(Oc2c(NS(=O)(=O)c3ccc(C(C)(C)C)cc3)ncnc2OCCOc2ccncn2)c1 | 149 to 150 °C |
| Cc1ccccc1S(=O)(=O)NC1CCc2sc(-c3ccc(=O)[nH]n3)cc2C1 (stereo unspecified) | 242 to 247 °C |
| C=C(c1cn(-c2c(Cl)cc(C(F)(F)F)cc2Cl)nc1C#N)C(F)(F)C(F)(F)F | 107 to 108 °C |
| CCCN(CCC)C(=O)Cc1ccc(OCC(=O)c2ccc(OC)cc2)c([N+](=O)[O-])c1 | 95 to 97 °C |
| c1ccc(-c2coc3c2ccc2ccccc23)cc1 | 98 to 109 °C |
| CCCCOc1ccc(Cc2cc3c(cn2)COC3)cc1 | 213 to 215 °C |
| CN(Cc1cccnc1)C(=N)NC#N | 141 to 143 °C |
| CC(=O)Oc1c(C2CCN(CCCCNC(=O)c3ccc(NC(=O)c4ccc(Cl)cc4)cc3)CC2)ccc2ccccc12 | 240 °C |
| O=C(/C=C/c1ccc(N2CCCCC2)cc1)CC(=O)/C=C/c1ccc2cc[nH]c2c1 | 91 to 96 °C |
| COc1ccc(C)cc1NC(=O)Nc1ccc2c(c1)CCN(C(=O)Oc1ccc(CCO)cc1Cl)C2 | 95 to 98 °C |
| CC(CCC(=O)c1ccccc1)C1CC=C2C3=C(CCC21C)C1(C)CCC(O)C(C)(C)C1CC3 (stereo unspecified) | 196 to 199 °C |
| FC(F)(F)c1ccccc1CC[C@H]1CN(Cc2ccccc2)CCN1Cc1ccccc1 | 77 to 82 °C |
| CCCCCCNc1ccc([N+](=O)[O-])cc1C(=O)O | 161 to 163 °C |
| O=C(Nc1cccc(-c2nnn[nH]2)c1)NC1N=C(c2ccccc2F)c2cccc(Cl)c2N(CC(=O)N2CC3CCC(CC3)C2)C1=O (stereo unspecified) | 172 to 180 °C |
| CN(C)CCCC(O)c1ccc(F)cc1-c1ccccc1 (stereo unspecified) | 60 to 62 °C |
| CCCCCCCNC1=CC(=O)c2c(OC)ccc(OC)c2C1=O | 74 to 75 °C |

Other lines, results leading:

| melting point | Structure (SMILES) |
| --- | --- |
| 98.7 to 99.7 °C | CC(=NOCCCOc1ccc(CC(=O)O)cc1)c1ccc(C(C)(C)C)cc1 |
| 82 to 83 °C | COCCN1CC(c2ccccc2)NC1=O (stereo unspecified) |
| 91 to 93 °C | CC(C)NCCCCOc1ccc(O)cc1 |
| 84.9 °C | CC#CCOc1cc(OCc2cccc(F)c2F)ncn1 |
| 134 °C | CC(C)N1CCN(CCN2CCC(c3cn(-c4ccc(F)cc4)c4cc(Cl)ccc34)CC2)C1=O |
| 211 to 212 °C | O=C(O)c1ccc(Cn2ccn(C3CCc4ccccc4C3)c2=S)cc1 (stereo unspecified) |
| 174 to 175 °C | O=C(CN1CSCC1=O)N1CCC(c2c[nH]c3ccccc23)CC1 |
| 155 to 157 °C | COc1ccc(-n2cnc(OC(C)C(=O)O)n2)cc1 (stereo unspecified) |
| 79 to 80 °C | CC(=O)SCC(CC(=O)c1ccc(Br)cc1)C(=O)OCc1ccccc1 (stereo unspecified) |
| 135 to 137 °C | COC(=O)C1=C(C)NC(C)=C(C(=O)OC)C1c1cc([N+](=O)[O-])ccc1OCCNCC(O)c1ccccc1 (stereo unspecified) |
| 187 to 193 °C | CCn1ncnc1COc1nn2c(-c3ccccc3F)nncc2c1-c1ccsc1 |
| 83 to 88 °C | O=[N+]([O-])c1cc(Cl)cc2c1OC[C@H](CO)O2 |
| > 320 °C | CC1CCCCN1CCC(=O)Nc1ccc2c(=O)c3ccc(NC(=O)CCN4CCCCC4C)cc3[nH]c2c1 (stereo unspecified) |
| 205 to 207 °C | O=C1CCC(n2cnc(-c3ccc(F)cc3)c2-c2ccnc(Nc3ccccc3)n2)CC1 |
| 173 to 175 °C | CCC1(C)CC(N(CCN(C(C)=O)C2CC(C)(CC)NC(C)(CC)C2C)C(C)=O)C(C)C(C)(CC)N1 (stereo unspecified) |
| 212 to 214 °C | CC(C)(C)OC(=O)N1CCN(c2ccc(OCC3(C)Cn4cc([N+](=O)[O-])nc4O3)cc2)CC1 (stereo unspecified) |
| 203 to 204 °C | CC(=O)c1ccc(NS(C)(=O)=O)c(NC(=O)c2ccc(F)cc2F)c1 |
| 56 to 58 °C | CCCCNC(=O)[C@@H](C[C@H](O)[C@@H](N)C[C@H](Cc1ccc(OC)c(CCOCOC)c1)C(C)C)C(C)C |
| 109 to 112 °C | CCOc1cc2nc(CCl)nc(Cl)c2cc1OCC |

| melting point | Structure (SMILES) |
| --- | --- |
| 210 °C | CC(=O)N(C(C)=O)n1c(=O)[nH]c2ccccc2c1=O |
| 172 to 174 °C | Cc1ccc(-c2c(NS(=O)(=O)c3ccc(C(C)(C)C)cc3)ncnc2OCCOc2ncc(C#CC(C)(C)O)cn2)cc1 |
| 207 to 208 °C | CCOc1cc2c(cc1S(=O)(=O)NC(=O)NC)C(CNC(=O)c1cc(Cl)ccc1OC)CCO2 (stereo unspecified) |
| 80 to 82 °C | Cc1ccc(Oc2ccc([N+](=O)[O-])cn2)cc1 |
| > 250 °C | Cc1oc2c(NC(=O)c3c(Cl)cccc3Cl)cc(NC(N)=O)cc2c1C |
| 103 to 104 °C | COc1ccc(-c2ccc(Br)c3ccsc23)cc1 |
| 142 to 145 °C | CCCCN(CC)c1nc(C)nc2c1C(C)(C)C(O)N2c1c(C)cc(C)cc1C (stereo unspecified) |
| 65 to 70 °C | OC[C@H]1CC[C@H](c2ccc(F)cc2)CC1 |
| 153 to 155 °C | O=C(O)c1cc(OCC(F)(F)F)c(Cl)cc1[N+](=O)[O-] |
| 91 to 92 °C | CCOC(=O)c1c(O)c2cc(F)ccc2c(=O)n1CC(C)C |
| 140 to 143 °C | S=C(Nc1ccc(Cl)cc1)Nc1ncccc1OCc1ccccc1 |
| 71 to 75 °C | COc1ccc2sc(SCc3c(F)c(F)c(F)c(F)c3F)nc2c1 |
| 206 to 208 °C | Cc1ccc2cccc(OCc3c(Cl)ccc(S(N)(=O)=O)c3Cl)c2n1 |
| 84 to 85 °C | COc1cc(CCc2ccc(N)cc2)cc(OC)c1OC |
| 211 to 213 °C | COc1ccccc1C1C(C(=O)c2ccc(C)cc2)=C(O)C(=O)N1c1ccc(C)nn1 (stereo unspecified) |
| 72 to 77 °C | CCOC(=O)c1ccc2c(c1)CC(CO)O2 (stereo unspecified) |
| 160 to 164 °C | COc1c(C2CCN(CCCCNC(=O)c3sc(-c4ccc(C#N)cc4)nc3C)CC2)ccc2c1CCCC2 |
| 190 to 195 °C | CCN(CC)c1ccc(C2(c3ccc(N(C)C)cc3)OC(=O)c3cc(N(C)C)ccc32)c(C)c1 (stereo unspecified) |
| 135 °C | CCOC(=O)c1c(NC(=O)NC(C)C)sc(C)c1C |

| melting point | Structure (SMILES) |
| --- | --- |
| 139 to 141 °C | CC(C(=O)O)c1ccc(C(=O)c2ccc(Cl)cc2)n1C (stereo unspecified) |
| 87 to 92 °C | CCOC(=O)ONC(=N)COc1cc(OCC(=N)NOC(=O)OCC)c2c(C)c(Cc3ccccc3)c(=O)oc2c1 |
| 148 to 149 °C | CCOP(=O)(/C=C/c1cn(-c2ccccc2)nc1OCc1ccc(OCc2nc(-c3cccc(C(=O)O)c3)oc2C)c(OC)c1)OCC |
| 180 °C | CS(=O)(=O)N1CCN([C@@H](CNS(=O)(=O)c2ccc(OCc3ccnc4ccccc34)cc2)C(=O)NO)CC1 |
| 166 to 167 °C | O=C1Nc2ccccc2N(C(=O)N2CCCC(CCCN3CCCCC3)C2)c2ncccc21 (stereo unspecified) |
| 278 °C | O=C(O)c1cc2c(-c3cccs3)nccc2[nH]c1=O |
| 137 to 138 °C | CC(=O)Nc1cccc(CCCCC(=O)O)c1 |
| 138 to 139 °C | COc1ccc(-n2nc(C(=O)c3ccccc3)cc2-c2ccc(C)cc2)cc1 |
| 184 °C | CN(C)Cc1ncc2c(c1O)COC2(c1ccccc1)c1ccc(F)cc1 (stereo unspecified) |
| 249 to 250 °C | CC(O)c1ccc2nc(NC(=O)c3ccc(C(C)(C)C)cc3)cn2c1 (stereo unspecified) |
| 173 to 176 °C | C#Cc1cc(Nc2ncnc3cnc(NC(=O)/C=C/CN(C)C)cc23)ccc1Cl |
| > 290 °C | COCc1cc(O)nc2nc(N)ccc12 |
| 58 to 68 °C | CC(=O)NC1Cc2cc(CCN3CCN(c4nsc5ccccc45)CC3)ccc2C1(C)C (stereo unspecified) |
| 126 to 128 °C | O=C1NCCSC1Cc1ccc(OCc2ccccc2)cc1 (stereo unspecified) |
| 69 to 71 °C | CCc1nc(NC(C)C)c([N+](=O)[O-])c(SC2CCCCC2)n1 |
| 158 to 162 °C | CC(C)C(=O)c1cn(Cc2c(F)cccc2F)c2sc(-c3ccc([N+](=O)[O-])cc3)c(CN(C)Cc3ccccc3)c2c1=O |
| 175 to 176 °C | CC(C)c1cccc(C(C)C)c1NC(=O)NCCN1CCN(CCSc2nc3ncccc3o2)CC1 |
| 94.5 to 96 °C | COc1ccc(/C=C(\C#N)c2c(F)c(F)c(F)c(F)c2F)cc1OC1CCCC1 |
| 152 °C | COc1cc(OCCCN2CCc3cc(OC)c(OC)cc3C2)ccc1NC(=O)c1cccc2c(=O)c3cccc(F)c3[nH]c12 |

Reference: a melting point compilation (Tetko et al.; mined from patent text by program, amines drawn as free bases though some values may be those of a salt)
